Like-named read-outs stand apart in the source and are kept apart here.
Key:
[1] = tested on: pooled normal human plasma; assay: Anticoagulant activity, APTT; settings: 0.1 mg/mL in normal pooled human plasma
Experimental: APTT measurements were performed on a STAGO STA-Compact Coagulation Analyser using standard protocols according to the manufacturer's instructions. Unfractionated heparin (UFH) was used as a control.

RSV = assay: Viral plaque number-reduction assay, RSV; settings: for RSV IC50: viral plaques (Table 9); for Selective index CC50/IC50 RSV: HEp-2 cells
Experimental: African green monkey kidney (GMK AH1) cells^46 were cultured in Eagle's minimum essential medium (EMEM) supplemented with 2% calf serum, 0.05% Primaton RL substance (Kraft Inc., Norwich, USA) and antibiotics. Human epidermoid carcinoma (HEp-2) cells were cultured in Dulbecco's modified EMEM (DMEM) supplemented with 10% fetal calf serum and antibiotics. […] The RSV strain A-2^50 was used. The RSV stock was prepared as described by Hallak et al.^51 and stored at −70° C. in the presence of 40% sucrose^52.
The viral infectivity (the plaque number-reduction) assay and the plaque size-reduction assay were carried out as described previously^17. […] Subsequently, the cells were washed with 2 mL of EMEM and overlaid with 1% methylcellulose solution in EMEM. The plaques were visualized by staining with crystal violet solution after 2 (HSV-2) or 3 (HSV-1) days of incubation at 37° C. […] When the compounds were screened for anti-HSV or anti-RSV activity, mixtures of 200 PFU of the virus and the test compound (100 μg/mL) in serum-free EMEM were incubated for 10 min at room temperature before addition to cells and during the entire period of viral infection of cells and the development of viral plaques. In the plaque size-reduction assay, the compounds were added to cells (in methylcellulose overlay medium) after 2 h period of virus infection of cells in the absence of the inhibitor. After 2-3 days of incubation at 37° C., the viral plaques were visualized by staining the cells with 1% solution of crystal violet. For each compound tested, the images of twenty neighboring plaques were captured using a Leica DC300 digital camera attached to a Leitz-Wetzlar Diavert microscope. The area of each plaque was determined using IM500 image software (Leica). Similar protocols were used for RSV, except that the assays were performed in HEp-2 cells and DMEM supplemented with 2% heat-inactivated fetal calf serum was used instead of EMEM.

VEGF = biological target: T1, VEGF (Homo sapiens, UniProt P15692); assay: Growth factor binding assay (SPR solution affinity), VEGF; settings: HBS-EP buffer, 25° C.
T1 sequence (P15692 207-395): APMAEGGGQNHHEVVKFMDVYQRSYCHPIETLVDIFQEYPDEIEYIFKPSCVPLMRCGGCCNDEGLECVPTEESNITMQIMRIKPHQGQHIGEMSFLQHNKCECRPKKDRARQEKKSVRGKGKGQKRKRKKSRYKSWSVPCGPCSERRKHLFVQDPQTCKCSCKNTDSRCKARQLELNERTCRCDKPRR
Summary of the method: (§1)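 Kd measured by SPR solution affinity: fixed growth factor with varying ligand competing for heparin-coated sensorchip, 25 °C. Buffer HBS-EP pH 7.4 (150 mM NaCl) for FGF-1 and VEGF; FGF-2 with 0.3 M NaCl. Duplicate values averaged.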

[2] = tested on: normal pooled human plasma; assay: Anticoagulant activity, Heptest; settings: 0.1 mg/mL in normal pooled human plasma
FGF-1 = FGF-1 (Homo sapiens, UniProt P05230); assay: Growth factor binding assay (SPR solution affinity), FGF-1; settings: SPR, HBS-EP buffer, 25° C.; read-out: Kd FGF-1
FGF-1, sequence (P05230 whole entry, species assumed): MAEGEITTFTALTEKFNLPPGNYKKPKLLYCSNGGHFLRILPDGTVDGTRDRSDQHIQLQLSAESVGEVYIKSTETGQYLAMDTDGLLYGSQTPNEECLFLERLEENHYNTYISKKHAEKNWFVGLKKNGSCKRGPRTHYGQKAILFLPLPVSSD

HSV-2 = assay: Viral plaque number-reduction assay, HSV-2; settings: for HSV-2 IC50: viral plaques in GMK AH1 cells (Table 9); for Selective index CC50/IC50 HSV-2: GMK AH1 cells
Summary of the method: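 200 PFU virus premixed 10 min with compound (100 μg/mL screen) and kept throughout infection. HSV plaques in GMK AH1 cells, RSV (strain A-2) in HEp-2 cells. Methylcellulose overlay, 37 °C, crystal violet staining after 2 days (HSV-2) or 3 days (HSV-1); plaque numbers counted.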

FGF-2 = FGF-2 (Homo sapiens, UniProt P09038); assay: Growth factor binding assay (SPR solution affinity), FGF-2
FGF-2, sequence (P09038 143-288, species assumed): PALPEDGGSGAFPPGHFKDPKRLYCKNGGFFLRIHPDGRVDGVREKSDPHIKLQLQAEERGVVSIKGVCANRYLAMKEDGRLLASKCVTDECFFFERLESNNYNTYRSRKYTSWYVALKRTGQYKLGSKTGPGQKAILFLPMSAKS
Summary of the method: as §1

[3] = biological target: T2, recombinant human heparanase (Homo sapiens, UniProt Q9Y251); assay: Heparanase inhibition assay (fondaparinux cleavage, WST-1); settings: read-out: Ki Heparanase; IC50 converted into Ki; fondaparinux 100 μM, pH 5.0
T2 sequence (Q9Y251 158-543 limits assumed): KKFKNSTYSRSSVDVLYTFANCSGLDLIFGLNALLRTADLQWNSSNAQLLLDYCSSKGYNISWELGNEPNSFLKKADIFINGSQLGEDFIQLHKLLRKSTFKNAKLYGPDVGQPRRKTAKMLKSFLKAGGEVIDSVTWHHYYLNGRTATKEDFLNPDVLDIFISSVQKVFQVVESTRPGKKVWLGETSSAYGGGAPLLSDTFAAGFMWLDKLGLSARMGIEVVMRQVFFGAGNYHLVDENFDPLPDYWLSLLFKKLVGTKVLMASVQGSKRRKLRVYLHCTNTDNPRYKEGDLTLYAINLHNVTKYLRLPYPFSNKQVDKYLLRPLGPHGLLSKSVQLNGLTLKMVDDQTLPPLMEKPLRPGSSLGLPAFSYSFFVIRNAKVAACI
T2 sequence (Q9Y251 36-109 limits assumed): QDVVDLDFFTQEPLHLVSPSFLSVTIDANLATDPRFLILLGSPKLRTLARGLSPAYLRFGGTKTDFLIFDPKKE

[4] = SPR, HBS-EP buffer containing 0.3 M NaCl, 25° C.; read-out: Kd FGF-2

SMILES | APTT [1] | RSV IC50 (RSV) | Kd (VEGF) | Heptest [2] | Kd (FGF-1) | HSV-2 IC50 (HSV-2) | Kd (FGF-2; [4]) | Ki [3] | Selective index CC50/IC50 RSV (RSV) | Selective index CC50/IC50 HSV-2 (HSV-2) | Kd (FGF-2; read-out: Kd FGF-2; SPR, HBS-EP buffer containing 0.3 M NaCl, 25° C.) | IC50 (RSV; human respiratory syncytial virus, read-out: RSV IC50) | IC50 (HSV-2; Human alphaherpesvirus 2, read-out: HSV-2 IC50)
CC(C)CCC[C@@H](C)[C@H]1CC[C@H]2[C@@H]3CCC4CC(O[C@H]5O[C@H](COS(=O)(=O)[O-])[C@@H](OS(=O)(=O)[O-])[C@H](O[C@H]6O[C@H](COS(=O)(=O)[O-])[C@@H](OS(=O)(=O)[O-])[C@H](O[C@H]7O[C@H](COS(=O)(=O)[O-])[C@@H](OS(=O)(=O)[O-])[C@H](OS(=O)(=O)[O-])[C@@H]7OS(=O)(=O)[O-])[C@@H]6OS(=O)(=O)[O-])[C@@H]5OS(=O)(=O)[O-])CC[C@]4(C)[C@H]3CC[C@]12C.[Na+].[Na+].[Na+].[Na+].[Na+].[Na+].[Na+].[Na+].[Na+].[Na+] (stereo partly drawn) [Compound 56, 3′-Cholestanyl 2,3,4,6-tetra-O-sodium sulfonato-α-D-mannopyranosyl-(1→3)-2,4,6-tri-O-sodium sulfonato-α-D-mannopyranosyl-(1→3)-3,4,6-tri-O-sodium sulfonato-α-D-mannopyranoside] | 58.5 s | 0.45 µg/mL | 90 ± 30 nM | 24.2 s | 16 ± 7 nM | 0.3 µg/mL | 490 ± 40 nM | 10.5 ± 1.7 nM |  |  |  |  | 
CC(C)CCCC(C)C1CCC2C3CCC4CC(OC5OC(COS(=O)(=O)O)C(OS(=O)(=O)O)C(OS(=O)(=O)O)C5OC5OC(COS(=O)(=O)O)C(OS(=O)(=O)O)C(OC6OC(COS(=O)(=O)O)C(OS(=O)(=O)O)C(OC7OC(COS(=O)(=O)O)C(OS(=O)(=O)O)C(OS(=O)(=O)O)C7OS(=O)(=O)O)C6OS(=O)(=O)O)C5OS(=O)(=O)O)CCC4(C)C3CCC12C [Compound 20, 3β-Cholestanyl 2,3,4,6-tetra-O-sodium sulfonato-α-D-mannopyranosyl-(1→3)-2,4,6-tri-O-sodium sulfonato-α-D-mannopyranosyl-(1→3)-2,4,6-tri-O-sodium sulfonato-α-D-mannopyranosyl-(1→2)-3,4,6-tri-O-sodium sulfonato-α-D-mannopyranoside] | 94.0 s |  | 22 ± 6 nM | 28.0 s | 0.6 ± 0.5 nM |  |  | 5.8 ± 1.5 nM | 66 | 100 | 160 ± 40 nM |  | 
CCCCCCCCCCCCCCCCCC(=O)NCCCO[C@@H]1O[C@H](COS(=O)(=O)[O-])[C@@H](O[C@H]2O[C@H](COS(=O)(=O)[O-])[C@@H](O[C@H]3O[C@H](COS(=O)(=O)[O-])[C@@H](O[C@H]4O[C@H](COS(=O)(=O)[O-])[C@@H](OS(=O)(=O)[O-])[C@H](OS(=O)(=O)[O-])[C@H]4OS(=O)(=O)[O-])[C@H](OS(=O)(=O)[O-])[C@H]3OS(=O)(=O)[O-])[C@H](OS(=O)(=O)[O-])[C@H]2OS(=O)(=O)[O-])[C@H](OS(=O)(=O)[O-])[C@H]1OS(=O)(=O)[O-].[Na+].[Na+].[Na+].[Na+].[Na+].[Na+].[Na+].[Na+].[Na+].[Na+].[Na+].[Na+].[Na+] [Compound 128, 3-Stearamidopropyl 2,3,4,6-tetra-O-sulfo-α-D-glucopyranosyl-(1→4)-2,3,6-tri-O-sulfo-α-D-glucopyranosyl-(1→4)-2,3,6-tri-O-sulfo-α-D-glucopyranosyl-(1→4)-2,3,6-tri-O-sulfo-β-D-glucopyranoside, tridecasodium salt] | 65.8 s |  | 14 ± 4 nM | 32.2 s | 4.94 ± 0.08 nM |  | 311 ± 25 nM | 9.1 ± 0.3 nM |  |  |  | 1.4 µg/mL | 1 µg/mL
CCCCCCCCCCCCOC1OC(COS(=O)(=O)O)C(OS(=O)(=O)O)C(OS(=O)(=O)O)C1OC1OC(COS(=O)(=O)O)C(OS(=O)(=O)O)C(OC2OC(COS(=O)(=O)O)C(OS(=O)(=O)O)C(OC3OC(COS(=O)(=O)O)C(OS(=O)(=O)O)C(OC4OC(COS(=O)(=O)O)C(OS(=O)(=O)O)C(OS(=O)(=O)O)C4OS(=O)(=O)O)C3OS(=O)(=O)O)C2OS(=O)(=O)O)C1OS(=O)(=O)O [Compound 4, Dodecyl 2,3,4,6-tetra-O-sodium sulfonato-α-D-mannopyranosyl-(1→3)-2,4,6-tri-O-sodium sulfonato-α-D-mannopyranosyl-(1→3)-2,4,6-tri-O-sodium sulfonato-α-D-mannopyranosyl-(1→3)-2,4,6-tri-O-sodium sulfonato-α-D-mannopyranosyl-(1→2)-3,4,6-tri-O-sodium sulfonato-α-D-mannopyranoside] | 125.9 s |  | 12 ± 3 nM | 64.2 s | 6 ± 3 nM |  | 480 ± 70 nM | 4.2 ± 0.5 nM | > 87 | > 444 |  |  | 
CC(C)CCC[C@@H](C)[C@H]1CC[C@H]2[C@@H]3CCC4C[C@@H](OCc5cn(CCCO[C@H]6O[C@H](COS(=O)(=O)[O-])[C@@H](OS(=O)(=O)[O-])[C@H](O[C@H]7O[C@H](COS(=O)(=O)[O-])[C@@H](OS(=O)(=O)[O-])[C@H](O[C@H]8O[C@H](COS(=O)(=O)[O-])[C@@H](OS(=O)(=O)[O-])[C@H](OS(=O)(=O)[O-])[C@@H]8OS(=O)(=O)[O-])[C@@H]7OS(=O)(=O)[O-])[C@@H]6OS(=O)(=O)[O-])nn5)CC[C@]4(C)[C@H]3CC[C@]12C.[Na+].[Na+].[Na+].[Na+].[Na+].[Na+].[Na+].[Na+].[Na+].[Na+] (stereo partly drawn) [Compound 60, 3-{4-(Cholestan-3β-yl-oxymethyl)-[1,2,3]triazol-1-yl}propyl 2,3,4,6-tetra-O-sodium sulfonato-α-D-mannopyranosyl-(1→3)-2,4,6-tri-O-sodium sulfonato-α-D-mannopyranosyl-(1→3)-3,4,6-tri-O-sodium sulfonato-α-D-mannopyranoside] | 71.4 s | 0.39 µg/mL | 260 ± 130 nM | 26.4 s | 14.3 ± 3 nM | 0.24 µg/mL | 474 ± 1.4 nM | 8.4 ± 2.6 nM |  |  |  |  | 

Reference: US20150065440A1 (Progen Pharmaceuticals Limited, priority 2007, published 2015)
